# Test results: publication PMC8617303 (2021)
# What was measured:
# [1] = system: c-myc G-quadruplex (DNA, G4) TGAGGGTGGTGAGGGTGGGGAAGG; assay: fluorescence titration, plate reader; details: 2 nM compound; site 1 of 2
# [2] = system: c-myc G-quadruplex (DNA, G4) TGAGGGTGGTGAGGGTGGGGAAGG; assay: ITC; details: K+ (50 mM KCl, 10 mM potassium phosphate); pH 7.0, 25 °C; site 1 of 2
# [3] = system: tel22 G-quadruplex (DNA, G4) AGGGTTAGGGTTAGGGTTAGGG; assay: fluorescence titration, plate reader; details: 2 nM compound
# [4] = system: c-kit21 G-quadruplex (DNA, G4) CGGGCGGGGCGCGAGGAAAA; assay: fluorescence titration, plate reader; details: 2 nM compound; site 1 of 2
# [5] = system: bcl-2 G-quadruplex (DNA, G4) AGGGGCGGGCGCGGGAGGAAGGGGGCGGGAGCGGGGCTG; assay: fluorescence titration, plate reader; details: 2 nM compound; site 1 of 2
# [6] = system: c-myc mutant DNA (DNA, single strand) TGAAAATAATGAAAATAAAAAAGA; assay: fluorescence titration, plate reader; details: 2 nM compound
# [7] = system: c-myc duplex (DNA, duplex) TGAGGGTGGTGAGGGTGGGGAAGG/CCTTCCCCACCCTCACCACCCTCA; assay: fluorescence titration, plate reader; details: 2 nM compound; site 1 of 2
# [8] = system: c-myc mutant DNA (DNA, single strand) TGAAAATAATGAAAATAAAAAAGA; assay: ITC; details: K+ (50 mM KCl, 10 mM potassium phosphate); pH 7.0, 25 °C; ~10^4 fold lower affinity than c-myc G4
# [9] = system: c-myc duplex (DNA, duplex) TGAGGGTGGTGAGGGTGGGGAAGG/CCTTCCCCACCCTCACCACCCTCA; assay: ITC; details: K+ (50 mM KCl, 10 mM potassium phosphate); pH 7.0, 25 °C; ~10^4 fold lower affinity than c-myc G4
# [10] = system: c-myc mutant DNA (DNA, single strand) TGAAAATAATGAAAATAAAAAAGA; assay: gel retardation, native PAGE; details: K+ (50 mM KCl, 10 mM potassium phosphate); pH 7.0, 25 °C; 10 µM DNA; up to 100 µM compound
structure (smiles),measurement,setting,value
CC(=NNC(=S)NN=C(C)c1ccccc1)c1ccccc1,Kd1,[1],2.86 ± 0.03 µM
CC(C)=NOC(=O)Nc1ccc(Cl)cc1,Ka1,[2],3.34 × 10^5 ± 0.4 M^-1
same,Kd1,[1],0.010 ± 0.003 µM
same,Kd2,"[3]; stronger of two sites, printed as Kd2 (Kd1 3.47)",2.89 ± 0.03 µM
same,Kd1,[4],1.71 ± 0.005 µM
same,Kd1,[5],0.761 ± 0.01 µM
same,Kd1,[6]; site 1 of 2,0.023 ± 0.03 µM
same,Kd1,[7],0.559 ± 0.03 µM
CC(CCN=Cc1ccccc1O)N=Cc1ccccc1O (centres unmarked),Kd1,[1],3.76 ± 0.03 µM
Cc1ccc(NC(=S)Nc2ccccc2)cc1,Kd1,[1],1.34 ± 0.13 µM
O=C(/C=C/C=C/c1ccc2c(c1)OCO2)N1CCCCC1,Ka1,[2],4.56 × 10^5 ± 0.03 M^-1
O=C(CC(=O)Nc1ccccc1)Nc1ccccc1,Kd1,[1],4.61 ± 0.05 µM
O=S(=O)(NCCNS(=O)(=O)c1ccccc1)c1ccccc1,Ka1,[2],3.81 × 10^7 ± 0.01 M^-1
same,binding,[8],weak
same,binding,[9],weak
same,binding,[10],no
same,Kd1,[1],0.002 ± 0.001 µM
same,Kd1,[3]; site 1 of 2,0.19 ± 0.02 µM
same,Kd1,[4],4.86 ± 0.02 µM
same,Kd1,[5],0.024 ± 0.009 µM
same,Kd2,[6],0.195 ± 0.04 µM
same,Kd1,[7],1.81 ± 0.09 µM
Oc1ccccc1NCCNc1ccccc1O,Kd1,[1],2.56 ± 0.02 µM
